Reference: PubChem BioAssay AID2060618 (Molecular Pharmacology Branch, DTP, NCI, 2025)

Test system: 454973-116-R2-J3-PDC spheroids, percent test/control viability
Test: Anticancer human tumor 454973-116-R2-J3-PDC patient-derived pancreatic carcinoma cell line growth inhibition [CLK]
Details: spheroids with HUVEC and MSC; for IC50: curve of first compound; for viability, T/C: stronger effect = lower value
Outline: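 Multi-cell-type spheroids combined patient-derived tumor cells with HUVEC endothelial cells and human mesenchymal stem cells. Paired agents were dosed in half-log steps down from about clinical Cmax, or from 10 microM where Cmax was unknown.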

[1] = second compound 0.0316 µM, first compound 0.0316 µM
[2] = second compound 0.0316 µM, first compound 0.1 µM
[3] = second compound 0.0316 µM, first compound 0.316 µM
[4] = second compound 0.0316 µM, first compound 1 µM
[5] = second compound 0.0316 µM, first compound 3.16 µM
[6] = second compound 0.0316 µM, first compound 10 µM
[7] = second compound 0.1 µM, first compound 0.0316 µM
[8] = second compound 0.1 µM, first compound 0.1 µM
[9] = second compound 0.1 µM, first compound 0.316 µM
[10] = second compound 0.1 µM, first compound 1 µM
[11] = second compound 0.1 µM, first compound 3.16 µM
[12] = second compound 0.1 µM, first compound 10 µM
[13] = second compound 0.316 µM, first compound 0.0316 µM
[14] = second compound 0.316 µM, first compound 0.1 µM
[15] = second compound 0.316 µM, first compound 0.316 µM
[16] = second compound 0.316 µM, first compound 1 µM
[17] = second compound 0.316 µM, first compound 3.16 µM
[18] = second compound 0.316 µM, first compound 10 µM
[19] = second compound 1 µM, first compound 0.0316 µM
[20] = second compound 1 µM, first compound 0.1 µM
[21] = second compound 1 µM, first compound 0.316 µM
[22] = second compound 1 µM, first compound 1 µM
[23] = second compound 1 µM, first compound 3.16 µM
[24] = second compound 1 µM, first compound 10 µM
[25] = second compound 3.16 µM, first compound 0.0316 µM
[26] = second compound 3.16 µM, first compound 0.1 µM
[27] = second compound 3.16 µM, first compound 0.316 µM
[28] = second compound 3.16 µM, first compound 1 µM
[29] = second compound 3.16 µM, first compound 3.16 µM
[30] = second compound 3.16 µM, first compound 10 µM
[31] = second compound 10 µM, first compound 0.0316 µM
[32] = second compound 10 µM, first compound 0.1 µM
[33] = second compound 10 µM, first compound 0.316 µM
[34] = second compound 10 µM, first compound 1 µM
[35] = second compound 10 µM, first compound 3.16 µM
[36] = second compound 10 µM, first compound 10 µM
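Further: spheroids exposed to compounds for 7 days before readout.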

SMILES: CC(Nc1ccc2c(c1)OCCn1cc(N3C(=O)OCC3C(F)F)nc1-2)C(N)=O (stereo unspecified) + CNC(=O)c1ccc(Nc2nc(OC3CCCC3)c3c(-c4ccc5nc(C)oc5c4)c[nH]c3n2)c(OC)c1
- IC50 (second compound 0.0316 µM): > 10000 nM
- IC50 (second compound 0.1 µM): 5040 nM
- IC50 (second compound 0.316 µM): 467 nM
- IC50 (second compound 1 µM): < 31.6 nM
- IC50 (second compound 3.16 µM): < 31.6 nM
- IC50 (second compound 10 µM): < 31.6 nM
- viability, T/C [1]: 98.4%
- viability, T/C [2]: 79.5%
- viability, T/C [3]: 80%
- viability, T/C [4]: 70.7%
- viability, T/C [5]: 67.9%
- viability, T/C [6]: 46%
- viability, T/C [7]: 96.8%
- viability, T/C [8]: 86.4%
- viability, T/C [9]: 74.9%
- viability, T/C [10]: 59%
- viability, T/C [11]: 58.6%
- viability, T/C [12]: 43%
- viability, T/C [13]: 54.8%
- viability, T/C [14]: 54.4%
- viability, T/C [15]: 55.6%
- viability, T/C [16]: 41.2%
- viability, T/C [17]: 36.8%
- viability, T/C [18]: 30.3%
- viability, T/C [19]: 31.1%
- viability, T/C [20]: 26.9%
- viability, T/C [21]: 22.5%
- viability, T/C [22]: 19.7%
- viability, T/C [23]: 16.9%
- viability, T/C [24]: 13.5%
- viability, T/C [25]: 23.5%
- viability, T/C [26]: 26.3%
- viability, T/C [27]: 23.5%
- viability, T/C [28]: 21.5%
- viability, T/C [29]: 14.7%
- viability, T/C [30]: 13.5%
- viability, T/C [31]: 24.3%
- viability, T/C [32]: 22.8%
- viability, T/C [33]: 21.1%
- viability, T/C [34]: 19.7%
- viability, T/C [35]: 13.3%
- viability, T/C [36]: 11.1%

SMILES: O=c1[nH]cc(F)c(=O)[nH]1 + CNC(=O)c1ccc(Nc2nc(OC3CCCC3)c3c(-c4ccc5nc(C)oc5c4)c[nH]c3n2)c(OC)c1
- IC50 (second compound 0.0316 µM): 1650 nM
- IC50 (second compound 0.1 µM): 2020 nM
- IC50 (second compound 0.316 µM): 41.2 nM
- IC50 (second compound 1 µM): < 31.6 nM
- IC50 (second compound 3.16 µM): < 31.6 nM
- IC50 (second compound 10 µM): < 31.6 nM
- viability, T/C [1]: 94.7%
- viability, T/C [2]: 107%
- viability, T/C [3]: 88.5%
- viability, T/C [4]: 61.7%
- viability, T/C [5]: 32.6%
- viability, T/C [6]: 38.4%
- viability, T/C [7]: 100%
- viability, T/C [8]: 113%
- viability, T/C [9]: 106%
- viability, T/C [10]: 75.8%
- viability, T/C [11]: 33.6%
- viability, T/C [12]: 32.1%
- viability, T/C [13]: 49.4%
- viability, T/C [14]: 49.3%
- viability, T/C [15]: 42.5%
- viability, T/C [16]: 37.5%
- viability, T/C [17]: 28.4%
- viability, T/C [18]: 25.3%
- viability, T/C [19]: 32.9%
- viability, T/C [20]: 28.1%
- viability, T/C [21]: 21.6%
- viability, T/C [22]: 20.6%
- viability, T/C [23]: 16.2%
- viability, T/C [24]: 19.6%
- viability, T/C [25]: 29.8%
- viability, T/C [26]: 33%
- viability, T/C [27]: 24.5%
- viability, T/C [28]: 19.1%
- viability, T/C [29]: 16.4%
- viability, T/C [30]: 18.9%
- viability, T/C [31]: 25.1%
- viability, T/C [32]: 25.3%
- viability, T/C [33]: 19.7%
- viability, T/C [34]: 19.3%
- viability, T/C [35]: 17.2%
- viability, T/C [36]: 14.2%

SMILES: C=CC(=O)N1CCN(c2nc(=O)n(-c3c(C)ccnc3C(C)C)c3nc(-c4c(O)cccc4F)c(F)cc23)C(C)C1 (stereo unspecified) + CN1CCN(c2cc(C(=O)Nc3cc4cc(-c5cnn(C)c5)ccc4cn3)ccn2)CC1
- IC50 (second compound 0.0316 µM): > 10000 nM
- IC50 (second compound 0.1 µM): > 10000 nM
- IC50 (second compound 0.316 µM): < 31.6 nM
- IC50 (second compound 1 µM): < 31.6 nM
- IC50 (second compound 3.16 µM): < 31.6 nM
- IC50 (second compound 10 µM): < 31.6 nM
- viability, T/C [1]: 97%
- viability, T/C [2]: 99.5%
- viability, T/C [3]: 103%
- viability, T/C [4]: 110%
- viability, T/C [5]: 110%
- viability, T/C [6]: 119%
- viability, T/C [7]: 87.6%
- viability, T/C [8]: 88.4%
- viability, T/C [9]: 92.6%
- viability, T/C [10]: 87.1%
- viability, T/C [11]: 98.4%
- viability, T/C [12]: 54.7%
- viability, T/C [13]: 2.25%
- viability, T/C [14]: 2.21%
- viability, T/C [15]: 6.18%
- viability, T/C [16]: 2.73%
- viability, T/C [17]: 4.43%
- viability, T/C [18]: 2.46%
- viability, T/C [19]: 0.13%
- viability, T/C [20]: 1.49%
- viability, T/C [21]: 1.16%
- viability, T/C [22]: 0.14%
- viability, T/C [23]: 0.16%
- viability, T/C [24]: 1.96%
- viability, T/C [25]: 1.3%
- viability, T/C [26]: 0.21%
- viability, T/C [27]: 4.08%
- viability, T/C [28]: 0.17%
- viability, T/C [29]: 4.42%
- viability, T/C [30]: 1.08%
- viability, T/C [31]: 1.96%
- viability, T/C [32]: 0.63%
- viability, T/C [33]: 0.4%
- viability, T/C [34]: 0.69%
- viability, T/C [35]: 0.61%
- viability, T/C [36]: 0.21%
